Measurements: patent US8614181B2, “Stabilized pharmaceutical peptide compositions” (Novo Nordisk A/S, priority 2003, dated 2013)

Assay: Thioflavin T-test (ThT) of physical stability (fibril formation) of pharmaceutical formulations after storage at 37° C.
Assay type: physicochemical
Details: for Fluorescence units after storage at 37° C., T = 0 week / Fluorescence units after storage at 37° C., T = 1 month / Fluorescence units after storage at 37° C., T = 1 week: pH of pharmaceutical formulation 7.4
Protocol: Before freeze drying the solution or suspension of the peptide it has been adjusted to the aimed pH. After freeze drying pharmaceutical formulations were prepared according to General procedure 1 and 2.
Preservative, isotonic agent and buffer were dissolved in water and pH adjusted to 7.4. Hereafter the freeze dried peptide was dissolved while stirring slowly. The pH was adjusted to 7.4 using Sodium Hydroxide and/or Hydrochloric Acid. Finally, the formulation was filtered through a 0.22 μm filter.
Preservative, isotonic agent and buffer were dissolved in water and pH adjusted to 7.4. The peptide was dissolved in water while stirring slowly. The two solutions were mixed and pH adjusted to 7.4 using Sodium Hydroxide and/or Hydrochloric acid. Finally, the formulation was filtered through a 0.22 μm filter.
Preservative, isotonic agent and buffer were dissolved in water and pH adjusted to 7.4 or lower. Compound 1 was dissolved in water while stirring slowly and pH is adjusted to 11.5 by the addition of Sodium Hydroxide. After approx. 5 min the two solutions were mixed and pH adjusted to 7.4 using Sodium Hydroxide and/or Hydrochloric acid. Finally, the formulation was filtered through a 0.22 μm filter.
Physical stability of the formulations is evaluated by means of the Thioflavin T-test. The physical stability of the different formulations is characterized by their tendency to form fibrils. A method to determine the presence of fibrils is the Thioflavin T-test. The histological thiazole dye Thioflavin T (ThT) is used as an indicator of amyloid fibril formation. The method is based on the fluorescent characteristics of ThT. […] The physical stability of the formulations is evaluated by the ThT-test after storage of the formulation is top filled glass cartridges for various time periods.

[1] = pH of Compound 1 before freeze drying 8.0, 3 mg/ml
[2] = pH of Compound 1 before freeze drying 9.5, 3 mg/ml
[3] = pH of Compound 1 before freeze drying 9.5, 6.25 mg/ml
[4] = pH of Compound 1 before freeze drying 11.5, 3 mg/ml
[5] = pH of Compound 1 before freeze drying 11.5, 6.25 mg/ml
[6] = pH of solution containing the drug substance 8.0, 6.25 mg/ml
[7] = pH of solution containing the drug substance 11.5, 6.25 mg/ml

Substance: Arg^34, Lys^26 (N^ε-(γ-Glu(N^α-hexadecanoyl)))GLP-1(7-37) [Compound 1]
- Physical stability (change in ThT) after 1 week and 1 months storage at 37° C. (Compound 1 adjusted to pH 8.0 before freeze drying): an increase in ThT is seen
- Physical stability (change in ThT) after 1 week and 1 months storage at 37° C. (Compound 1 adjusted to pH 9.5 before freeze drying): no increase in ThT is seen
- Physical stability (change in ThT) after 1 week and 1 months storage at 37° C. (Compound 1 adjusted to pH 11.5 before freeze drying): no increase in ThT is seen
- Fluorescence units after storage at 37° C., T = 0 week [1]: 6 fluorescence units
- Fluorescence units after storage at 37° C., T = 1 month [1]: 28 fluorescence units
- Fluorescence units after storage at 37° C., T = 1 month (pH of Compound 1 before freeze drying 8.0, 6.25 mg/ml): 37 fluorescence units
- Fluorescence units after storage at 37° C., T = 0 week [2]: 6 fluorescence units
- Fluorescence units after storage at 37° C., T = 1 month [2]: 7 fluorescence units
- Fluorescence units after storage at 37° C., T = 1 month [3]: 13 fluorescence units
- Fluorescence units after storage at 37° C., T = 1 week [3]: 13 fluorescence units
- Fluorescence units after storage at 37° C., T = 0 week [4]: 6 fluorescence units
- Fluorescence units after storage at 37° C., T = 1 month [4]: 7 fluorescence units
- Fluorescence units after storage at 37° C., T = 0 week [5]: 14 fluorescence units
- Fluorescence units after storage at 37° C., T = 1 month [5]: 14 fluorescence units
- Fluorescence units after storage at 37° C., T = 1 week [5]: 13 fluorescence units
- Fluorescence units after storage at 37° C., T = 0 week [6]: 14 fluorescence units
- Fluorescence units after storage at 37° C., T = 1 month [6]: 41 fluorescence units
- Fluorescence units after storage at 37° C., T = 1 week [6]: 20 fluorescence units
- Fluorescence units after storage at 37° C., T = 0 week [7]: 13 fluorescence units
- Fluorescence units after storage at 37° C., T = 1 month [7]: 13 fluorescence units
- Fluorescence units after storage at 37° C., T = 1 week [7]: 12 fluorescence units
- Physical stability (change in ThT) after 1 month at 37° C. (pH raised above neutral pH (>8) in the solution containing the drug substance): no increase in ThT is seen
